Source: BindingDB's records for doi:10.1016/j.bmc.2012.11.004 (Romanian Academy, 2013)

Legend:
Carbonic anhydrase 2 = Carbonic anhydrase 2 (Homo sapiens, UniProt P00918); assay: Inhibition of human carbonic anhydrase-2
Carbonic anhydrase 1 = Carbonic anhydrase 1 (Homo sapiens, UniProt P00915); assay: Inhibition of human carbonic anhydrase-1
Carbonic anhydrase 12 = Carbonic anhydrase 12 (Homo sapiens, UniProt O43570); assay: Inhibition of human carbonic anhydrase-12
Chain of Carbonic anhydrase 12 (O43570 whole entry): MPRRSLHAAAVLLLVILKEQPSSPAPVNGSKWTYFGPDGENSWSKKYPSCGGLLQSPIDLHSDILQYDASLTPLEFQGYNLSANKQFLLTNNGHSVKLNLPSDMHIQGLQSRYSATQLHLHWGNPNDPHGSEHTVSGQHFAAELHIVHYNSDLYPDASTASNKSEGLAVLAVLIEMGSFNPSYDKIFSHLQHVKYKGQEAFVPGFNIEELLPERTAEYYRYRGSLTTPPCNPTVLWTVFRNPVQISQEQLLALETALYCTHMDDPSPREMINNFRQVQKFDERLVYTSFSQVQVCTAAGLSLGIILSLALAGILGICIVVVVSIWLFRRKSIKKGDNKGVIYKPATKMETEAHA

Chain of Carbonic anhydrase 1 (P00915 whole entry): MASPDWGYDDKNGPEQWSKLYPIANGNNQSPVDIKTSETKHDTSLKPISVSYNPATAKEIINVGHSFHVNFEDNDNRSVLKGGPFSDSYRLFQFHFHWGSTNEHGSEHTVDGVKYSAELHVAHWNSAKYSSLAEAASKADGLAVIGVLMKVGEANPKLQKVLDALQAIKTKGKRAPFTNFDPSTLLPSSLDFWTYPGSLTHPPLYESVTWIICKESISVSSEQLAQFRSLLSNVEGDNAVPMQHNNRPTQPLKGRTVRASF

Ki (Carbonic anhydrase 2) [nM]	Ki (Carbonic anhydrase 1) [nM]	Ki (Carbonic anhydrase 12) [nM]	SMILES
342	4300	108	NS(=O)(=O)Nc1ccc(NC(=O)NC2CCCCC2)cc1
342	3420	34	COc1ccc(NC(=O)Nc2ccc(NS(N)(=O)=O)cc2)c(C)c1
430		27	CC(NC(=O)Nc1ccc(NS(N)(=O)=O)cc1)c1cccc2ccccc12 (stereo not given)
430		27	COc1ccc(C)cc1NC(=O)Nc1ccc(NS(N)(=O)=O)cc1
342	3420	27	NS(=O)(=O)Nc1ccc(NC(=O)Nc2ccc(Cl)cc2)cc1
342	1710		CCCCOc1ccc(NC(=O)Nc2ccc(NS(N)(=O)=O)cc2)cc1
858		216	NS(=O)(=O)Nc1ccc(NC(=O)Nc2ccccc2-c2ccccc2)cc1
171	2710	9	NS(=O)(=O)Nc1ccc(NC(=O)NCCc2ccccc2)cc1
430		43	NS(=O)(=O)Oc1ccc(NC(=O)NC23CC4CC(CC(C4)C2)C3)cc1
136	2710	9	NS(=O)(=O)Nc1ccc(NC(=O)NCc2ccccc2)cc1
430			COc1ccc(OC)c(NC(=O)Nc2ccc(NS(N)(=O)=O)cc2)c1
682			CC(C)c1ccccc1NC(=O)Nc1ccc(NS(N)(=O)=O)cc1
682			Cc1cc(C)cc(NC(=O)Nc2ccc(NS(N)(=O)=O)cc2)c1
430	2150	9	NS(=O)(=O)Nc1ccc(NC(=O)Nc2cccc([N+](=O)[O-])c2)cc1
	6660	11	NS(=O)(=O)Nc1ccc(NC(=O)NCc2ccco2)cc1
	4300	17	Cc1cc(Cl)ccc1NC(=O)Nc1ccc(NS(N)(=O)=O)cc1
